{
  "source": "paper PMC9603901",
  "about": "“Therapeutic Potential of Antimicrobial Peptide PN5 against Multidrug-Resistant E. coli and Anti-Inflammatory Activity in a Septic Mouse Model” (Microbiology Spectrum, 2022)",
  "key": {"[1]": {"test_system": "MDR E. coli ASEC 6", "parameters": "method as in Asan hospital; key to susceptibility category: S: susceptible; R: resistant; I: intermediate", "details": "ref Asan hospital, cited from earlier work; for MIC: ASEC 6 (ESBL), resistance information of clinical isolate; for susceptibility category: ASEC 6"}, "[2]": {"test_system": "ASEC strains (drug-resistant E. coli, ASEC 1 to 19)", "assay": "MIC, microdilution, summary over clinical isolates", "type": "cell-based", "details": "Escherichia coli; cefotaxime and ceftazidime: 'mostly showed no activity'", "description": "(§1) Bacterial cells were cultured at 37°C in the appropriate culture media with shaking (180 rpm). Luria-Bertani broth (LB) (244620; BD Difco) was used for E. coli ATCC 25922, ASEC strains, and B. subtilis KCTC 2217. Nutrient broth (NB) (234000; BD Difco) was used for P. aeruginosa ATCC 27853, S. Typhimurium KCTC 1926, and A. baumannii KCTC 2508. Tryptic soy broth (TSB) (211825; BD Difco) was used for S. aureus ATCC 25923. Finally, brain heart infusion (BHI) (237500; BD Difco) was used for L. monocytogenes KCTC 3710. The antimicrobial activity of each peptide was determined using microdilution assays. To this end, 2-fold serial dilution series of each peptide (from 1 to 64 μM) were added to duplicate media with 10 mM sodium phosphate buffer (pH 7.4). Fifty microliters of the peptide and antibiotic solution was added to each well of a 96-well plate (32096, surface nontreatment; SPL Life Sciences). Then, 50 μL of 2 × 10^5 CFU mL^−1 of bacteria was added to each well, and the samples were incubated for 18 to 24 h without shaking at 37°C."}, "[3]": {"test_system": "MDR E. coli ASEC 10", "parameters": "method as in Asan hospital; key to susceptibility category: S: susceptible; R: resistant; I: intermediate", "details": "ref Asan hospital, cited from earlier work; for MIC: ASEC 10 (ESBL), resistance information of clinical isolate; for susceptibility category: ASEC 10"}, "[4]": {"test_system": "MDR E. coli ASEC 15", "parameters": "method as in Asan hospital; key to susceptibility category: S: susceptible; R: resistant; I: intermediate", "details": "ref Asan hospital, cited from earlier work; for MIC: ASEC 15 (AmpC), resistance information of clinical isolate; for susceptibility category: ASEC 15"}, "[5]": {"test_system": "mouse red blood cells", "assay": "Hemolytic activity", "type": "cell-based", "details": "200 μM; 8% mouse red blood cells, 1 h, 37°C", "description": "(§2) RAW 264.7 cells (mouse macrophage cells) were maintained in high-glucose Dulbecco’s modified Eagle medium (DMEM) (Welgene, Daegu, South Korea) supplemented with 10% fetal bovine serum (FBS) (Gibco) and 1% penicillin at 37°C in humidified 5% CO2. Cells (2 × 10^5 cells well^−1) were seeded into DMEM supplemented with 10% FBS medium in a 96-well plate. The MTT assay was performed after culturing the cells in 96-well plates at a density of 2 × 10^5 cells well^−1, followed by treatment with serially diluted PN5, magainin 2, and melittin. After 24 h, the medium was discarded, and 100 μL DMEM and 10% FBS medium containing 0.5 mg mL^−1 MTT were added to each well. After 4 h of incubation, the medium was discarded and dimethyl sulfoxide was added to each well to solubilize the formazan. The optical densities at 570 and 650 nm (OD570 and OD650, respectively) of the treated cells were compared to those of control cells. The hemolytic activity of the peptides was evaluated as the release of hemoglobin from an 8% mRBC suspension. A 100-μL aliquot of the 8% mRBC suspension was added to the wells of a 96-well plate, and 100 μL of peptide solution in phosphate-buffered saline (PBS) was added at a final peptide concentration of 200 μM. After incubation for 1 h at 37°C with shaking (50 rpm), the suspensions were centrifuged at 1,000 × g for 5 min. The absorbance of the supernatant was measured at 414 nm using a Versa Max microplate reader (Molecular Devices). As a control, no hemolysis and complete hemolysis were determined in PBS and 0.1% Triton X-100, respectively. The degree of hemolysis was calculated using the following equation as described in reference: %hemolysis=[(A414withpeptide-A414withPBS)/(A414with0.1%TritonX-100-A414 with PBS)] × 100"}, "[6]": {"test_system": "A. baumannii KCTC 2508", "type": "cell-based, Acinetobacter baumannii", "details": "microdilution, NB, 18 to 24 h, 37°C, three independent experiments", "description": "as §1"}, "[7]": {"test_system": "P. aeruginosa ATCC 27853", "type": "cell-based, Pseudomonas aeruginosa", "details": "microdilution, NB, 18 to 24 h, 37°C, three independent experiments", "description": "as §1"}, "[8]": {"test_system": "RAW 264.7 cells", "assay": "MTT cell viability", "type": "cell-based, mouse", "details": "up to 200 μM, 24 h", "description": "as §2"}, "[9]": {"details": "200 μg/mL^−1; previous study; cited from earlier work", "from_the_text": "In this study, we confirmed that PN5 has antimicrobial activities against Gram-negative and Gram-positive bacteria, including MDR E. coli. The ASEC strains that were clinically isolated from patients, mentioned in Table S3 in the supplemental material, produced ESBL, which induces resistance to β-lactam antibiotics, and New Delhi metallo-β-lactamase (NDM), which hydrolyzes a class of carbapenems. […] The four PN peptides (PN5, PN7, PN8, and PN10) purified from pine ne ..."}, "[10]": {"test_system": "B. subtilis KCTC 2217", "type": "cell-based, Bacillus subtilis", "details": "microdilution, LB, 18 to 24 h, 37°C, three independent experiments", "description": "as §1"}, "[11]": {"test_system": "S. Typhimurium KCTC 1926", "type": "cell-based, Salmonella enterica serovar Typhimurium", "details": "microdilution, NB, 18 to 24 h, 37°C, three independent experiments", "description": "as §1"}},
  "note": "Where no end group is shown, it is not given here.",
  "data": [
    {"compound": "CO/N=C(\\C(=O)N[C@@H]1C(=O)N2C(C(=O)O)=C(COC(C)=O)CS[C@H]12)c1csc(N)n1", "note": "[Cefotaxime]", "values": [
      {"measurement": "MIC", "setting": "[1]", "value": "> 32", "unit": "µg/mL"},
      {"measurement": "susceptibility category", "setting": "[1]", "value": "R"},
      {"measurement": "MIC", "setting": "[2]", "value": "> 32", "unit": "µM"},
      {"measurement": "MIC", "setting": "[3]", "value": "> 32", "unit": "µg/mL"},
      {"measurement": "susceptibility category", "setting": "[3]", "value": "R"},
      {"measurement": "MIC", "setting": "[4]", "value": "> 32", "unit": "µg/mL"},
      {"measurement": "susceptibility category", "setting": "[4]", "value": "R"}
    ]},
    {"compound": "CC(C)(O/N=C(\\C(=O)N[C@@H]1C(=O)N2C(C(=O)[O-])=C(C[n+]3ccccc3)CS[C@H]12)c1csc(N)n1)C(=O)O", "note": "[Ceftazidime]", "values": [
      {"measurement": "MIC", "setting": "[1]", "value": "> 16", "unit": "µg/mL"},
      {"measurement": "susceptibility category", "setting": "[1]", "value": "R"},
      {"measurement": "MIC", "setting": "[2]", "value": "> 32", "unit": "µM"},
      {"measurement": "MIC", "setting": "[3]", "value": 16, "unit": "µg/mL"},
      {"measurement": "susceptibility category", "setting": "[3]", "value": "R"},
      {"measurement": "MIC", "setting": "[4]", "value": "> 16", "unit": "µg/mL"},
      {"measurement": "susceptibility category", "setting": "[4]", "value": "R"}
    ]},
    {"compound": "C[C@@H](O)[C@H]1C(=O)N2C(C(=O)O)=C(S[C@@H]3CN[C@H](C(=O)N(C)C)C3)[C@H](C)[C@H]12", "note": "[Meropenem]", "values": [
      {"measurement": "MIC", "setting": "[1]", "value": "> 8", "unit": "µg/mL"},
      {"measurement": "susceptibility category", "setting": "[1]", "value": "R"},
      {"measurement": "MIC", "setting": "[3]", "value": "<= 1 μg mL-1"},
      {"measurement": "susceptibility category", "setting": "[3]", "value": "S"},
      {"measurement": "MIC", "setting": "[4]", "value": "<= 1 μg mL-1"},
      {"measurement": "susceptibility category", "setting": "[4]", "value": "S"}
    ]},
    {"compound": "FKFLARTGKFL-NH2 [PN5]", "values": [
      {"measurement": "hemolysis", "setting": "[5]", "value": "did not induce hemolysis"},
      {"measurement": "MIC", "setting": "[6]", "value": 4, "unit": "µM"},
      {"measurement": "MIC", "setting": "[7]", "value": 4, "unit": "µM"},
      {"measurement": "toxicity, MTT assay", "setting": "[8]", "value": "did not show toxicity"},
      {"measurement": "cytotoxicity", "setting": "[9]", "value": "less than 20%"},
      {"measurement": "MIC", "setting": "[10]", "value": 4, "unit": "µM"},
      {"measurement": "MIC", "setting": "[11]", "value": 2, "unit": "µM"}
    ]}
  ]
}
